Test system: 75 nadA (RNA, riboswitch) GGGUUUGGUUGCAACAUCCCCGUGGGUUGGGUGAUGGCUCCAAUCAGAGCCGGAACAGCGAAUCCACUGCAACCGUGA
Assay: in-line probing
Settings: 20 mM Mg2+, 100 mM K+; 50 mM Tris-HCl pH 8.3, 23 °C, 42–72 h; apparent

NC(=O)c1ccc[n+]([C@@H]2O[C@H](COP(=O)(O)OP(=O)(O)OC[C@H]3O[C@@H](n4cnc5c(N)ncnc54)[C@H](O)[C@@H]3O)[C@@H](O)[C@H]2O)c1
KD: ~ 90 μM

Reference: article PMC6859854 (2019)
